Laboratory results as given in patent publication US10092530B2, “Method for inhibiting melanogenesis and promoting collagen production and wound healing” (TCI Co., Ltd, priority 2015, dated 2018).

Columns and labels:
Format in all cases: cell-based
[1] = tested on: human dermal fibroblasts; assay: Wound repair/closure of an incised wound area in a culture of human dermal fibroblasts; conditions: for percentage of wound repair/closure relative to the CTL group: 18 hours
Protocol: (§1) Human dermal fibroblasts (CCD-966SK cells, former ATCC CRL-1881), a type of adherent skin cells, were cultured in minimum essential medium supplemented with 10% (v/v) fetal bovine serum (FBS), 0.37% (w/v) sodium bicarbonate, 0.1 mM non-essential amino acid solution (NEAA), 1 mM sodium pyruvate, 0.03% (w/v) […], 100 units/ml penicillin and 100 μg/ml streptomycin at 37° C. under humidified atmosphere (relative humidity of 80%) containing 5% CO2. During the culture, the medium was renewed every two days. When the cultured cells reached confluence and formed a monolayer, which was examined by an inverted microscope, a subculture was carried out.
Due to the importance of wound healing, the inventors of the present application studied the promoting effect of the compound of formula (I) on wound healing of skin in EXAMPLE 4. The following four groups were compared in this example: • (1) Control group (CTL group): creating an incised wound area in a culture of human dermal fibroblasts and then incubating and examining the culture for 18 hours; • (2) One dose-18 hours group (1X-18 group): creating an incised wound area in a culture of human dermal fibroblasts and adding one dose of the compound of the present invention to the culture; and then examining changes in the wound area of human dermal fibroblasts after an incubation of 18 hours, wherein the term “one dose” refers to 8.75 ng/mL of the compound of formula (I) in DMSO; • (3) Double dose-18 hours group (2X-18 group): creating an incised wound area in a culture of human dermal fibroblasts and adding one dose of the compound of the present invention to the culture; and then examining changes in the wound area of human dermal fibroblasts after an incubation of 18 hours, wherein the term “double dose” refers to 17.5 ng/mL of the compound of formula (I); and • (4) Fourfold dose-18 hours group (4X-18 group): creating an incised wound area in a culture of human dermal fibroblasts and adding one dose of the compound of the present invention to the culture; and then examining changes in the wound area of human dermal fibroblasts after an incubation of 18 hours, wherein the term “fourfold dose” refers to 35 ng/mL of the compound of formula (I).
According to FIG. 8, a constant number of fibrocytes (about 1-2×10^5 cells) were produced in each of the CTL, 1X-18, 2X-18, and 4X-18 groups to repair and close the wound at 18 hours after wounding.
In addition, a percentage of wound repair/closure in the wound area of human dermal fibroblasts was determined for the above four groups by analyzing the surface area change of the wound area in FIG. 8 using the software ImageJ. […]

[2] = tested on: MMP-9 gene expression; assay: MMP-9 gene expression by RT-PCR in human dermal fibroblasts; conditions: 1X-24 group: 8.75 ng/mL, 24 hours
Protocol: as §1
Therefore, the inventors of the present application studied the inhibitory effect of the compound of formula (I) on MMP-9 gene expression in EXAMPLE 2. […]

[3] = tested on: mouse melanoma cell line B16F10; assay: Melanin quantification assay in mouse melanoma cell line B16F10; conditions: for decreased melanin content compared with the CTL group: 48 hours, B16F10
Protocol: Therefore, the inventors of the present application studied the inhibitory effect of the compound of formula (I) on MITF gene expression in EXAMPLE 3. The following five groups were compared in this example: • (1) Control group (CTL group): incubating a culture of human dermal fibroblasts for a predetermined time; • (2) One dose-24 hours group (1X-24 group): adding one dose of the compound of the present invention to a culture of human dermal fibroblasts and then examining the culture after an incubation of 24 hours, wherein the term “one dose” refers to 8.75 ng/mL of the compound of formula (I) in DMSO; • (3) One dose-48 hours group (1X-48 group): adding one dose of the compound of the present invention to a culture of human dermal fibroblasts and then examining the culture after an incubation of 48 hours; • (4) Double dose-24 hours group (2X-24 group): adding a double dose of the compound of the present invention to a culture of human dermal fibroblasts and then examining the culture after an incubation of 24 hours, wherein the term “double dose” refers to 17.5 ng/mL of the compound of formula (I); and • (5) Double dose-48 hours group (2X-48 group): adding a double dose of the compound of the present invention to a culture of human dermal fibroblasts and then examining the culture after an incubation of 48 hours.
In addition, a melanin quantification assay was performed to examine the change of melanin content in mouse melanoma cell line B16F10 (ATCC CRL-6475) upon addition of the compound of the present invention. The treatment of the cells was the same as described above. […] Thus, it is concluded that the compound at a concentration between 8 ng/ml and 18 ng/ml causes a decrease of at least 20% in melanin formation in mouse melanoma cells.

[4] = tested on: MITF gene expression; assay: MITF gene expression by RT-PCR in human dermal fibroblasts; conditions: 2X-48 group: 17.5 ng/mL, 48 hours
Protocol: as §1
Therefore, the inventors of the present application studied the inhibitory effect of the compound of formula (I) on MITF gene expression in EXAMPLE 3. […]

[5] = tested on: human dermal fibroblasts; assay: Collagen secretion assay (Sircol) in human dermal fibroblasts; conditions: for increase in collagen secretion compared with the CTL group: 24 hours

In the case of C=C1CC[C@@H](C)C2C[C@@H](O)[C@@H](C(C)C(=O)O)CC12 (stereo partly drawn) [compound of formula (I)], the “degree of repair/closure in the wound area compared with the CTL group (micrographs)” value ([1]; 1X-18, 2X-18 and 4X-18 groups (8.75, 17.5, 35 ng/mL), 18 hours after wounding) is reported as “significantly higher degree of repair/closure”, the “percentage of wound repair/closure relative to the CTL group” value ([1]; 1X-18 group: 8.75 ng/mL) is reported as 1.21 fold and the “percentage of wound repair/closure relative to the CTL group” value ([1]; 2X-18 group: 17.5 ng/mL) is reported as 1.4 fold. For the same compound, the “percentage of wound repair/closure relative to the CTL group” value ([1]; 4X-18 group: 35 ng/mL) was 1.5 fold, the “inhibition of MMP-9 gene expression compared with the CTL group” value [2] was “about 80%” and the “decreased melanin content compared with the CTL group” value ([3]; 1X-48 group: 8.75 ng/mL) was 20%. The “decreased melanin content compared with the CTL group” value ([3]; 2X-48 group: 17.5 ng/mL) was 40%, the “decrease in melanin formation” value ([3]; concentration between 8 ng/ml and 18 ng/ml, mouse melanoma cells) was “at least 20%” and the “inhibition of MITF gene expression compared with the CTL group” value [4] was “about 50%”. For the same compound, the “increase in collagen secretion compared with the CTL group” value ([5]; 1X-24 group: 8.75 ng/mL) was 20%, the “increase in collagen secretion compared with the CTL group” value ([5]; 2X-24 group: 17.5 ng/mL) was 30% and the “increase in collagen secretion” value ([5]; concentration between 8 ng/ml and 18 ng/ml) was “at least 20%”.
